The assay addresses T1, TAFIa (Homo sapiens, UniProt Q96IY4).
T1 sequence (Q96IY4 115-423): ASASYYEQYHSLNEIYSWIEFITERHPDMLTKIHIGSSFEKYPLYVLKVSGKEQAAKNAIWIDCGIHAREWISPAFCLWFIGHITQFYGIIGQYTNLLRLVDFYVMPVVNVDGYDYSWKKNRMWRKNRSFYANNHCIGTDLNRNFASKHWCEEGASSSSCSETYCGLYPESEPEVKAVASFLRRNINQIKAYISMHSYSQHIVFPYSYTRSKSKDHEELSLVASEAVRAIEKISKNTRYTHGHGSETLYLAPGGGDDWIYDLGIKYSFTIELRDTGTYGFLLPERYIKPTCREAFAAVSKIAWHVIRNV
Nature of the assay: Inhibition of TAFIa (hippuryl-Arg test). It is filed as biochemical. The note with it: TAFIa 2 nM, hippuryl-arginine 5 mM, 45 minutes, relative to control containing the carrier; for inhibition at 0.01 µM: compound at 10 nM; for inhibition at 0.02 µM: compound at 20 nM. The method, boiled down:
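TAFI (4 nM) activated 20 min by thrombin/thrombomodulin with 10 mM calcium, stopped with PPACK; TAFIa (2 nM) then incubated 45 min with compound and 5 mM hippuryl-arginine in Hepes buffer, pH 7.4, 28 °C. Absorbance at 405 nm, blank-corrected; % inhibition versus carrier at 10 and 20 nM.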

Structures are written as SMILES.

`NCCCCC1(C(=O)O)CN(Cc2ccsc2-c2ccccc2)CCP1(=O)O` (stereo not drawn) [Example 105, 3-(4-AMINOBUTYL)-4-HYDROXY-4-OXO-1-[(2-PHENYLTHIOPHEN-3-YL)METHYL]-1,4-AZAPHOSPHINANE-3-CARBOXYLIC ACID] displayed an inhibition at 0.01 µM of 44% and an inhibition at 0.02 µM of 66%.
For `NCCCC[C@@]1(C(=O)O)CN(Cc2ccc(F)cc2-c2cccc(F)c2)CCP1(=O)O` [Example 226, (3S)-3-(4-AMINOBUTYL)-1-[[4-FLUORO-2-(3-FLUOROPHENYL)PHENYL]METHYL]-4-HYDROXY-4-OXO-1,4-AZAPHOSPHINANE-3-CARBOXYLIC ACID], in that order: 71% and 88%.
For the compound `CC(C)(C)c1ccccc1CN1CCP(=O)(O)[C@](CCCCN)(C(=O)O)C1` [Example 200, (3S)-3-(4-AMINOBUTYL)-1-[(2-TERT-BUTYLPHENYL)METHYL]-4-HYDROXY-4-OXO-1,4-AZAPHOSPHINANE-3-CARBOXYLIC ACID], the inhibition at 0.01 µM came to 28% and the inhibition at 0.02 µM is 46%.
In the case of `NCCCC[C@@]1(C(=O)O)CN(Cc2ccc(O)cc2-c2cnc3ccccn23)CCP1(=O)O` [Example 224, (3S)-3-(4-AMINOBUTYL)-4-HYDROXY-1-[4-HYDROXY-2-(IMIDAZO[1,2-A]-PYRIDIN-3-YL)BENZYL]-4-OXO-1,4-AZAPHOSPHINANE-3-CARBOXYLIC ACID], testing at 0.01 µM gave an inhibition of 86% and at 0.02 µM the inhibition was 93%.
For `NCCCCC1(C(=O)O)CN(Cc2ccccc2-c2ccc3c(c2)OCO3)CCP1(=O)O` (stereo not drawn) [Example 164, 3-(4-AMINOBUTYL)-1-[[2-(1,3-BENZODIOXOL-5-YL)PHENYL]METHYL]-4-HYDROXY-4-OXO-1,4-AZAPHOSPHINANE-3-CARBOXYLIC ACID], in that order: 66% and 87%.
On the same counts, the results for `COc1ccc(-c2cc(F)ccc2CN2CCP(=O)(O)[C@](CCCCN)(C(=O)O)C2)cc1` [Example 187, (3S)-3-(4-AMINOBUTYL)-1-[[4-FLUORO-2-(4-METHOXYPHENYL)PHENYL]-METHYL]-4-HYDROXY-4-OXO-1,4-AZAPHOSPHINANE-3-CARBOXYLIC ACID] are 74% and 97%.
On the same counts, the results for `COc1ccc(-c2ccccc2CN2CCP(=O)(O)C(CCCCN)(C(=O)O)C2)cn1` (stereo not drawn) [Example 165, 3-(4-AMINOBUTYL)-4-HYDROXY-1-[[2-(6-METHOXYPYRIDIN-3-YL)PHENYL]-METHYL]-4-OXO-1,4-AZAPHOSPHINANE-3-CARBOXYLIC ACID] are 76% and 91%.
In turn, `CS(=O)(=O)c1ccccc1-c1ccccc1CN1CCP(=O)(O)[C@](CCCCN)(C(=O)O)C1` [Example 208, (3S)-3-(4-AMINOBUTYL)-4-HYDROXY-1-[[2-(2-METHYLSULPHONYLPHENYL)-PHENYL]METHYL]-4-OXO-1,4-AZAPHOSPHINANE-3-CARBOXYLIC ACID] gave an inhibition at 0.01 µM of 35% and an inhibition at 0.02 µM of 46%.
For `NCCCC[C@@]1(C(=O)O)CN(Cc2ccccc2-c2cncc3ccccc23)CCP1(=O)O` [Example 202, (3S)-3-(4-AMINOBUTYL)-4-HYDROXY-1-[(2-ISOQUINOLIN-4-YLPHENYL)-METHYL]-4-OXO-1,4-AZAPHOSPHINANE-3-CARBOXYLIC ACID], in that order: 74% and 87%.
As to `NCCCC[C@@]1(C(=O)O)CN(Cc2ccc(F)cc2-c2cccnc2)CCP1(=O)O` [Example 190, (3S)-3-(4-AMINOBUTYL)-1-[(4-FLUORO-2-PYRIDIN-3-YLPHENYL)METHYL]-4-HYDROXY-4-OXO-1,4-AZAPHOSPHINANE-3-CARBOXYLIC ACID], 0.01 µM produced 88% inhibition and 0.02 µM produced 95% inhibition.
Consider `NCCCC[C@@]1(C(=O)O)CN(Cc2ccc(O)cc2-c2ccc(F)cc2)CCP1(=O)O` [Example 228, (3S)-3-(4-AMINOBUTYL)-1-[[2-(4-FLUOROPHENYL)-4-HYDROXYPHENYL]-METHYL]-4-HYDROXY-4-OXO-1,4-AZAPHOSPHINANE-3-CARBOXYLIC ACID], for which at 0.01 µM the inhibition was 63% and testing at 0.02 µM gave an inhibition of 82%.
Turning to `NCCCC[C@@]1(C(=O)O)CN(Cc2ccc(O)cc2-c2cccs2)CCP1(=O)O` [Example 227, (3S)-3-(4-AMINOBUTYL)-4-HYDROXY-1-[(4-HYDROXY-2-THIOPHEN-2-YLPHENYL)METHYL]-4-OXO-1,4-AZAPHOSPHINANE-3-CARBOXYLIC ACID], the inhibition at 0.01 µM amounted to 84% and testing at 0.02 µM gave an inhibition of 91%.

As usually defined, the inhibition is the share of the control response that was lost under treatment. Read a low inhibition as a response near the control.

Source of the values: patent US10138260B2, “Compounds of phosphinanes and azaphosphinanes, a process for their preparation and pharmaceutical compositions containing them” (LES LABORATOIRES SERVIER, priority 2016, dated 2018).
